“And” between values parts separate entries of the source, which are not always exact repeats. Equal entries are not always repeated. Where two headings read alike, the source gives them in different places.
Tests used:
ob/ob mice = test: Effect of compounds on food intake in ob/ob mice (15 h food consumption, s.c. minipump infusion); type: in vivo, mouse; settings: for Food intake, % of basal level, Mean: 15 h food consumption; for Inhibition (%) Based on basal (food intake): relative to vehicle
Description: Obese (ob/ob) mouse is selected as the primary animal model for screening as this mutant mouse consumes high amounts of food resulting in a high signal to noise ratio. To further substantiate and compare efficacy data, the effect of the compounds on food consumption is also studied in wild type (C57BL/6J) mice. The amount of food consumed during 15 hours of infusion of compounds is recorded.
Male mice (obese C57BL/6JBom-Lep^ob and lean wild-type C57B1/6JBom; Bomholtsgaard, Denmark) 8-9 weeks with an average body weight of 50 g (obese) and 25 g (lean) are used in all the studies. The animals are housed singly in cages at 23±1° C., 40-60 % humidity and have free access to water and standard laboratory chow. The 12/12-h light/dark cycle is set to lights off at 5 p.m. The animals are conditioned for at least one week before start of study.
The test compounds are dissolved in solvents suitable for each specific compound such as cyclodextrin, cyclodextrin/methane sulfonic acid, polyethylene glycol/methane sulfonic acid, or saline. Fresh solutions are made for each study. […] The purity of the test compounds is of analytical grade.
(§1) The animals are weighed at the start of the study and randomized based on body weight. Alzet osmotic minipumps (Model 2001D; infusion rate 8 μl/h) are used and loaded essentially as recommended by the Alzet technical information manual (Alza Scientific Products, 1997; Teeuwes and Yam, 1976). Continuous subcutaneous infusion with 24 hours duration is used. The minipumps are either filled with different concentrations of test compounds dissolved in vehicle or with only vehicle solution and maintained in vehicle pre-warmed to 37° C. (approx. 1 h). The minipumps are implanted subcutaneously in the neck/back region under short acting anesthesia (metofane/enflurane). This surgical procedure lasts approximately 5 min. It takes about 3 h to reach steady state delivery of the compound.
(§2) The weights of the food pellets are measured at 5 p.m. and at […]. for two days before (baseline) and one day after the implantation of the osmotic minipumps. The weighing is performed with a computer assisted Mettler Toledo PR 5002 balance. Occasional spillage is corrected for. At the end of the study the animals are killed by neck dislocation and trunk blood sampled for later analysis of plasma drug concentrations.
Food consumption for 15 hours is measured for the three consecutive days and the percentage of basal level values is derived for each animal from the day before and after treatment. The values are expressed as mean±SD and mean±SEM from eight animals per dose group. Statistical evaluation is performed by Kruskal-Wallis one-way ANOVA using the per cent basal values. If statistical significance is reached at the level of p<0.05, Mann-Whitney U-test for statistical comparison between control and treatment groups is performed.

[1] = Determination of plasma concentration at steady state (Css, tot) in ob/ob mice; type: in vivo, mouse; settings: continuous s.c. infusion, read-out: Css, tot (total plasma exposure at steady state)
Description: as §1, §2
The plasma sample proteins are precipitated with methanol, centrifuged, and the supernatant is transferred to HPLC vials and injected into the liquid chromatography/mass spectrometric system. The mass spectrometer is set for electrospray positive ion mode and Multiple Reaction Monitoring.
A linear regression analysis of the standards forced through the origin is used to calculate the concentrations of the unknown samples.

[2] = nominal 10 mg/kg/day s.c. infusion
[3] = nominal 30 mg/kg/day s.c. infusion
[4] = nominal 100 mg/kg/day s.c. infusion
[5] = mouse, plasma, subcutaneous, nominal 10 mg/kg/day
[6] = mouse, plasma, subcutaneous, nominal 30 mg/kg/day
[7] = mouse, plasma, subcutaneous, nominal 100 mg/kg/day

SMILES | Food intake, % of basal level, Mean (ob/ob mice; [2]) | Inhibition (%) Based on basal (food intake) (ob/ob mice; [2]) | concentration at 24 h ([1]; nominal 10 mg/kg/day) | Food intake, % of basal level, Mean (ob/ob mice; [3]) | Food intake, % of basal level, Mean (ob/ob mice; [4]) | Inhibition (%) Based on basal (food intake) (ob/ob mice; [3]) | Inhibition (%) Based on basal (food intake) (ob/ob mice; nominal 30 mg/kg/day s.c. infusion, listed as 4-n-Butyl-N-(4-piperazin-1-yl-quinolin-6-yl)benzenesulfonamide) | Inhibition (%) Based on basal (food intake) (ob/ob mice; [4]) | Inhibition (%) Based on basal (food intake) (ob/ob mice; nominal 100 mg/kg/day s.c. infusion, listed as 4-n-Butyl-N-(4-piperazin-1-yl-quinolin-6-yl)benzenesulfonamide) | concentration at 24 h [1, 5] | concentration at 24 h [1, 6] | concentration at 24 h [1, 7] | Inhibition (%) Based on basal (food intake) (ob/ob mice; nominal 30 mg/kg/day s.c. infusion, listed as 5-Chloro-3-methyl-benzo[b]thiophene-2-sulfonic acid (4-[4-methylpiperazin-1-yl]q) | Inhibition (%) Based on basal (food intake) (ob/ob mice; nominal 100 mg/kg/day s.c. infusion, listed as 5-Chloro-3-methyl-benzo[b]thiophene-2-sulfonic acid (4-[4-methylpiperazin-1-yl]q)
Clc1cccc(N2CCNCC2)c1 [mCCP, m-chlorophenylpiperazine, reference compound] | 31.2 % of basal level and 39.4 % of basal level | 52.5% and 39.6% | 610 nM and 780 nM |  |  |  |  |  |  |  |  |  |  | 
CCCCc1ccc(S(=O)(=O)Nc2ccc3nccc(N4CCNCC4)c3c2)cc1 [EXAMPLE 2, 4-n-butyl-N-(4-piperazin-1-yl-quinolin-6-yl)benzenesulphonamide] | 61.0 % of basal level | 6.5% |  | 45.5 % of basal level | 43.6 % of basal level | 30.2% | 30% | 33.2% | 33% | 370 nM | 940 nM | 1290 nM |  | 
Cc1c(S(=O)(=O)Nc2ccc3nccc(N4CCN(C)CC4)c3c2)sc2ccc(Cl)cc12 [EXAMPLE 1, 5-chloro-3-methyl-benzo[b]thiophene-2-sulphonic acid (4-[4-methylpiperazin-1-yl]quinolin-6-yl)amide] | 62.5 % of basal level | 4.9% |  | 49.3 % of basal level | 49.9 % of basal level | 25.0% |  | 24.1% |  | 1000 nM | 1620 nM | 1810 nM | 25% | 24%
